Assay results from paper PMC10275055, “Preventing recurrence in Sonic Hedgehog Subgroup Medulloblastoma using the OLIG2 inhibitor CT-179” (Research Square, 2023).
Read-outs that look alike come from different tables or passages of the source.

Columns and labels:
[1] = target: T1, Discoidin Domain Receptor Tyrosine Kinase 2 (DDR2) (Homo sapiens, UniProt Q16832); assay: Kinase profiling (KINOMEscan / SelectScreen), DDR2; format: biochemical; conditions: ATP equal to Km
T1 sequence (Q16832 22-855): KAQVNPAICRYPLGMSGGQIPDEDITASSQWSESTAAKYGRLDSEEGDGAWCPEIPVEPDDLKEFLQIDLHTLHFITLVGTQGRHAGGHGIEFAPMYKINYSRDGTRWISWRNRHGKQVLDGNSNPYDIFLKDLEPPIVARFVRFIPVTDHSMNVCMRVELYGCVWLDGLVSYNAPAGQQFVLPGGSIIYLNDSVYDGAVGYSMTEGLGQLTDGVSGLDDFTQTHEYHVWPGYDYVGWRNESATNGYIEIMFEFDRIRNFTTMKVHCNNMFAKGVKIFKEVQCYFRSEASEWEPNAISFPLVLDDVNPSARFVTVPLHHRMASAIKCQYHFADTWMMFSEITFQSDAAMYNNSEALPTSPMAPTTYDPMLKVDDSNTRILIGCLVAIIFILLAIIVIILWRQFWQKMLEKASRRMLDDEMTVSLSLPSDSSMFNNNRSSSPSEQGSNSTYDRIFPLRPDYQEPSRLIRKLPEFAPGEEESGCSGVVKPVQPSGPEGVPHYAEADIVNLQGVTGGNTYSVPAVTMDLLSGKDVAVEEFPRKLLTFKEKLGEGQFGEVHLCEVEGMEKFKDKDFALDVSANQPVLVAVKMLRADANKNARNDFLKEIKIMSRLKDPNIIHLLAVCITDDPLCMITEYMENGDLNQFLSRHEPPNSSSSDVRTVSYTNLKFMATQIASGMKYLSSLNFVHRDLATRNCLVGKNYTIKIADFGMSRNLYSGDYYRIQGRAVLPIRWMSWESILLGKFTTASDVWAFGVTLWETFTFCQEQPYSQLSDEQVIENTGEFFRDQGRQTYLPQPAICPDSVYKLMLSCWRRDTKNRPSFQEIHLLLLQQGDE
Method: Effect of CT-179 on protein kinase activity was evaluated using the Thermofisher Scientific SelectScreen Kinase Profiling Service. Over 400 human protein kinases were tested in the presence of 1 μM final concentration of CT-179 at an ATP concentration equal to the known ATP Km for each kinase. The experiment was done by Curtana Pharmaceuticals. Data is presented as percentage of inhibition of enzyme activity. Software CORAL was used to make the kinome tree, which is available from: http://phanstiel-lab.med.unc.edu/CORAL/.

Daoy MB cell line = assay: Cell viability, 7 days treatment, Daoy; format: cell-based; conditions: Homo sapiens, 168 h
Method: (§1) Cell proliferation was determined by a CellTiter 96® Non-Radioactive Cell Proliferation Assay (Promega) kit. Absorbance at 490 nm was measured on a Biotek PowerWave (Biotek, USA) plate scanner to obtain raw data. Average absorbance from triplicate wells were plotted against concentration using GraphPad Prism software v.7.0 (GraphPad software). At the indicated time points, cells were stained using FITC-conjugated Annexin V and Annexin V binding buffer (BD Pharmingen™) according to the manufacturer’s instructions. Annexin V or propidium iodide (PI)-positive cells were analyzed using a Fortessa 5 Flow Cytometer (Becton Dickinson) and data was analyzed using FlowJo® software (Tree Star).

Daoy cells = assay: Apoptosis and cell cycle analysis in Daoy cells; format: cell-based, human; conditions: 1 μM
Method: as §1
Cell cycle analysis was performed as descried previously. Cells were fixed with 70% ice-cold ethanol and subsequently stained with PI and analyzed using a Fortessa 5 Flow Cytometer (Becton Dickinson) and data was analyzed using FlowJo® software (Tree Star).

[2] = test system: SHH-MB in Gfap-Cre/SmoM2 (G-Smo) mice; assay: G-Smo GEM model of SHH-MB: tolerability, pharmacodynamics, survival; format: in vivo
Method: (§2) Medulloblastoma-bearing mice were maintained at UNC in accordance with UNC IACUC protocols 19–098 and 21–011 and at QIMR under protocol 1572 and 2324. Specimens were examined by a neuropathologist to verify tumor type and grade.
(§3) Post-natal P10 G-Smo mice were injected IP with CT-179 (80 mg/kg), or POx-Palbo (25 mg/kg, every day from P10 to P13), or combination (CT-179 + POx-Palbo, EOD from P14) or saline control solution and tumors were harvested after 6 or 24 hours. EdU (40 mg/kg) was administered IP 30 minutes before harvest. Tumors were dissociated using the Worthington Papain Dissociation System Kit, then fixed for 15 minutes on ice and washed with FACS Wash buffer (2% FBS in PBS). Fixed cells were stained with fluorophore markers for DNA (FX Cycle stain, Thermo Fisher Scientific), EdU (Click-it Edu Kit, Thermo Fisher Scientific), and phospho-RB content (phospho-RB^Ser807/811, Cell Signalling Technology) as previously described. Stained cells were resuspended in sheath fluid and ran on LSR II flow cytometer for 50000 events at the UNC Flow Cytometry core, using appropriate compensation controls and analyzed using FlowJo® software (Tree Star).
(§4) Brains including tumors from G-Smo mice were harvested, fixed in 4% paraformaldehyde for 48 hours, and embedded in paraffin at the UNC Centre for Gastrointestinal Biology and Disease Histology core. Sections were deparaffinised, and antigen retrieval was performed using a low-pH citric acid-based buffer. Staining was performed and stained slides were digitally scanned using the Leica Biosystems Aperio ImageScope software (12.3.3) by the UNC Translational Pathology Laboratory, as in prior studies. The primary antibodies used were anti-NeuN (Cell Signalling Technology) anti-OLIG2 (Cell Marque) and anti-SOX10 (Cell Signalling Technology) and anti-cleaved caspase-3 (Biocare).
(§5) In vitro experiments - all data represent the means ± standard deviation (SD) or standard error of the mean (SEM) as indicated. Where appropriate, two-tailed Student’s t-test or ANOVA were used to determine the probability of difference (*p < 0.05, ** p < 0.01, ***p < 0.001). In vivo experiments - the log-rank (Mantel-Cox) test was used to determine the survival significance of survival differences between treatment groups (*p < 0.05, ** p < 0.01, ***p < 0.001). Kaplan-Meier survival curves were generated using GraphPad Prism v. 7.0 software (GraphPad software).

[3] = as above; format: in vivo, mice; conditions: mouse, in vivo, ip, read-out: maximum tolerated dose (MTD)
Method: as §2, §3, §4, §5

U87-MG glioma cells = assay: Cell viability, OLIG2-negative U87-MG; format: cell-based; conditions: does not express OLIG2
Method: as §1

[4] = 80 mg/kg at P10, P12, P14 and P16, 24 hours after last dose

In the case of `Cc1cc(NCCCN(C)C)nc(NC(=O)Nc2ccc(Cl)c(Cl)c2)n1` [CT-179], the inhibition at 1 µM [1] is reported as 80%, the IC50 (Daoy MB cell line) is reported as 144 nM and the “apoptosis (cleaved CASPASE-3, Annexin V)” value (Daoy cells) is reported as “increased apoptosis”. For the same compound, the cell cycle effect (Daoy cells; 24 hours, single therapy) was “G2/M phase arrest”, the “p-OLIG2 in tumors, western blot” value [2, 4] was “decreased p-OLIG2” and the “p-RB in tumors, western blot” value [2, 4] was “reduced p-RB”. For the same compound, the EFS versus control ([2]; IP 80 mg/kg EOD, 80 mg/kg every three days, or 100 mg/kg every three days, from P10) was “significantly improved EFS”, the “BLI signal in G-Smo Gli-luc mice” value ([2]; administered every three days) was “dose-dependent decrease in BLI signal” and the MTD ([3]; EOD) was 80 mg/kg. For the same compound, the MTD ([3]; every three days) was 100 mg/kg and the growth suppression (U87-MG glioma cells) was “not suppressed”.
